Data reported in paper PMC7721897, “Metabolism and pharmacokinetics of a novel polyphenol fatty acid ester phloridzin docosahexaenoate in Balb/c female mice” (Scientific Reports, 2020).

Key:
[1] = design: method as in PMID 31473253; details: 100 mg/kg body weight via intraperitoneal injections; cited from earlier work
MCF-7 cells = assay: Cellular uptake assay (UPLC-ESI-MS/MS of cell lysates); format: cell-based, human; details: 20 μM, 72 h
Protocol: (§1) Figure 1 Conjugation of PZ with DHA increases the cellular uptake and stability of PZ and DHA. The cells were treated with 20 μM of PZ, DHA or PZ-DHA and cultured for 72 h at 37 °C. Cells were harvested and washed thoroughly using cold PBS. Cells were lysed in cold acetone containing 0.05 mg/mL quercetin, and cell lysates were collected by centrifugation and analyzed by using UPLC-ESI-MS/MS. (A) mean % cellular uptake of PZ, DHA and PZ-DHA. (B) fold increase in intracellular PZ and DHA when conjugated. ANOVA multiple means statistical comparison method was performed and differences among means were compared using Tukey’s test; *p < 0.05. (MDA-MB-231 p = 0.008; MDA-MB-468 p = 0.01; 4T1 p = 0.02; MCF-7 p = 0.01; MCF-10A p = 0.0005).
(§2) Cells were seeded at a density of 3 × 10^5 cells (MDA-MB-231, MDA-MB-468, MCF-7, and MCF-10A) or 1 × 10^5 cells (4T1) /T-75 flask. The cells were cultured overnight to promote cell adhesion. Adherent cells were treated with a sub-cytotoxic concentration (20 μM) of PZ, DHA or PZ-DHA and cultured for 72 h at 37 °C. The supernatant was carefully removed, and cell monolayers were washed with cold PBS. Cells were harvested using TrypLE Express and washed thoroughly with cold PBS. […] The sample was analyzed using a UPLC/ESI/MS system. The percentage cell uptake of the total dose was quantified using standard curves of PZ (R^2 = 0.99), DHA (R^2 = 0.98) or PZ-DHA (R^2 = 0.99) made in methanol.
(§3) PZ-DHA and/or PZ-DHA metabolites in malignant/non-malignant epithelial cell lysates, in vitro microsome enzyme reaction mixtures, and mouse serum aliquots were determined using UPLC-ESI–MS/MS instrument (Waters Limited, Mississauga, ON, Canada). All mass spectroscopic analyses were performed using mass scan (full-scan, identification of unknowns) and single ion monitoring (SIM; quantification of PZ, DHA, PZ-DHA, and quercetin) modes of a Waters H-class UPLC separations module coupled with a Micromass Quattro micro API MS/MS system and MassLynx V4.0 control software. […]

MCF-10A cells = assay: as above; format: cell-based, human; details: 20 μM, 72 h
Protocol: as §1, §2, §3

MDA-MB-468 cells = assay: as above; format: cell-based, human; details: 20 μM, 72 h
Protocol: as §1, §2, §3

CC/C=C\C/C=C\C/C=C\C/C=C\C/C=C\C/C=C\CCC(=O)OC[C@H]1O[C@@H](Oc2cc(O)cc(O)c2C(=O)CCc2ccc(O)cc2)[C@H](O)[C@@H](O)[C@@H]1O [PZ-DHA, phloridzin docosahexaenoate]
liver or kidney toxicity [1]: does not show liver or kidney toxicity
cellular uptake (as a % of the dose) (MCF-7 cells): 21%
PZ-DHA uptake and fold-increase in intracellular PZ and DHA versus the malignant cells (MCF-10A cells): similar
cellular uptake (as a % of the dose) (MDA-MB-468 cells): 50%
